# Results reported in PubChem BioAssay (NCI).
#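 Cultured in 96-well plates, cells were exposed to test compound for 48 hours across five concentrations. At the TGI there is no net growth.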
# Key:
# Experiment in all cases: NCI anticancer screen, dose series, 48 h
# SK-MEL-28 melanoma = tested on: SK-MEL-28 melanoma
# OVCAR-4 ovarian = tested on: OVCAR-4 ovarian
# SN12C renal = tested on: SN12C renal
# NCI-H23 lung = tested on: NCI-H23 lung
# MDA-MB-231 breast = tested on: MDA-MB-231 breast
# MDA-MB-435 = tested on: MDA-MB-435
# NCI/ADR-RES ovarian = tested on: NCI/ADR-RES ovarian
# ACHN renal = tested on: ACHN renal
# OVCAR-3 ovarian = tested on: OVCAR-3 ovarian
# HCT-116 colon = tested on: HCT-116 colon
SMILES,TGI (SK-MEL-28 melanoma),TGI (OVCAR-4 ovarian),TGI (SN12C renal),TGI (NCI-H23 lung),TGI (MDA-MB-231 breast),TGI (MDA-MB-435),TGI (NCI/ADR-RES ovarian),TGI (ACHN renal),TGI (OVCAR-3 ovarian),TGI (HCT-116 colon)
CC(C)c1nccn1Cc1ccc(Cl)cc1Cl,> 100 µM,> 100 µM,88.7 µM,> 100 µM,> 100 µM,> 100 µM,> 100 µM,> 100 µM,> 100 µM,63.4 µM
COc1cc2c(cc1O)CC[C@@H]1C2CC[C@@]2(C)C1CC[C@@H]2O (stereo not given in full),> 100 µM,> 100 µM,> 82 µM,51.7 µM,> 87.1 µM,0.927 µM,2.73 µM,> 100 µM,7.17 µM,> 81 µM
Cc1ccc([N+](=O)[O-])cc1NC(=O)C(=O)C1CCC2=C(Sc3ccccc3N2)C1=O (stereo not given),> 100 µM,> 100 µM,> 100 µM,> 100 µM,> 100 µM,> 100 µM,> 100 µM,> 100 µM,90.8 µM,> 100 µM
COc1ccc(NC(=S)NNC(=O)c2cc(-c3ccccc3)nc3ccccc23)cc1,43.3 µM,65.1 µM,48.6 µM,30.6 µM,51.2 µM,13.4 µM,35.5 µM,87.3 µM,33.1 µM,27 µM
C=CCn1c(=O)c2ccccc2[n+]2c(-c3cccc([N+](=O)[O-])c3)csc12,> 100 µM,> 100 µM,> 100 µM,> 100 µM,> 100 µM,> 100 µM,68.2 µM,> 100 µM,> 100 µM,> 100 µM
O=C(C=P(c1ccccc1)(c1ccccc1)c1ccccc1)c1ccc(-c2ccc(F)cc2F)cc1,8.14 µM,9.96 µM,5.31 µM,12.2 µM,4.92 µM,5.79 µM,13.2 µM,6.76 µM,5.19 µM,8.81 µM
C/C(=C\CNc1nc(Cl)nc2nc[nH]c12)CO,> 100 µM,> 100 µM,> 100 µM,> 100 µM,> 100 µM,> 100 µM,> 100 µM,> 100 µM,> 100 µM,> 100 µM
CC1(C)O[C@@H](CP(c2cccc3ccccc23)c2cccc3ccccc23)[C@H](CP(c2cccc3ccccc23)c2cccc3ccccc23)O1,> 100 µM,> 100 µM,> 100 µM,> 100 µM,> 100 µM,> 100 µM,> 100 µM,> 100 µM,> 100 µM,> 100 µM
Cc1cccc2c1C(=O)[C@@](C)([C@]1(C)Nc3cccc(C)c3C1=O)N2,> 100 µM,> 100 µM,> 100 µM,> 100 µM,> 100 µM,> 100 µM,> 100 µM,> 100 µM,> 100 µM,> 100 µM
N#Cc1c(-c2ccc(Cl)cc2)cc(-c2nc3ccccc3[nH]2)nc1N,36 µM,36.2 µM,27.5 µM,35.3 µM,26.8 µM,18.8 µM,48.4 µM,45.2 µM,41.8 µM,22.5 µM
Nc1ccc(-c2nc3ccccc3s2)cc1,33 µM,35.6 µM,43.5 µM,43.1 µM,31.9 µM,32.1 µM,56.4 µM,31.8 µM,33.3 µM,35.2 µM
CC1(O)C(=O)OC2CC([C@]3(O)CCC4[C@@H]5C[C@H]6O[C@]67[C@@H](O)C=CC(=O)[C@]7(C)C5CC[C@@]43C)C1(C)C2 (stereo not given in full),26 µM,26.5 µM,63.4 µM,25.1 µM,36 µM,33.2 µM,> 100 µM,73.8 µM,35 µM,23.1 µM
CSc1ccccc1P(CCP(c1ccccc1SC)c1ccccc1SC)c1ccccc1SC,> 100 µM,> 100 µM,> 100 µM,> 38.1 µM,> 100 µM,> 100 µM,> 100 µM,> 100 µM,> 33.5 µM,> 100 µM
CCCCCCCCCCCCCCCCNc1ccn(C2CC(OP(=O)(O)OCC3OC(n4cc(CC)c(=O)[nH]c4=O)CC3O)C(CO)O2)c(=O)n1 (stereo not given),68.3 µM,> 100 µM,> 100 µM,> 100 µM,68.3 µM,> 100 µM,84.9 µM,> 100 µM,> 100 µM,> 100 µM
OC(O)(C(F)(F)F)C(F)(F)F,> 100 µM,> 100 µM,> 100 µM,> 100 µM,> 100 µM,> 100 µM,> 100 µM,> 100 µM,> 100 µM,> 100 µM
O=C(NCc1cccnc1)C(=O)NCc1cccnc1,> 100 µM,> 100 µM,> 100 µM,> 100 µM,> 100 µM,> 100 µM,> 100 µM,> 100 µM,> 100 µM,> 100 µM
Cn1c(=O)c2sc3cc4c(cc3c2c2ccccc21)sc1c(=O)n(C)c2ccccc2c14,> 100 µM,> 100 µM,> 100 µM,> 100 µM,36.8 µM,> 100 µM,> 100 µM,54.8 µM,> 100 µM,> 100 µM
